The values that follow are results of earlier work, collected in US9221747B2, “Method of making fatty acid N-acylalkanolamines” (Iowa State University Research Foundation, Inc., priority 2012, dated 2015).

The conditions of this data set: at −20° C.

Turning to `CCCCC/C=C\C/C=C\CCCCCCCC(=O)O` [linoleic acid], the solubility in methanol is given as 233 g/100 g methanol.
In the case of `CCCCCCCC/C=C\CCCCCCCC(=O)O` [oleic acid], the solubility in methanol was 4.02 g/100 g methanol.
